Like-named read-outs stand apart in the source and are kept apart here. Non-standard residues stand in square brackets, D forms with d. Residues, ends and D or L forms follow the SMILES beside them.
Columns and labels:
ETB receptor (ETBR) = biological target: T1, ETB receptor (ETBR) (Homo sapiens, UniProt P24530); assay: ET-1-induced intracellular calcium mobilization (Fluo-4) in HEK293/ETBR cells, antagonist mode; assay type: cell-based
T1 construct: gene EDNRB
T1 sequence (P24530 27-442): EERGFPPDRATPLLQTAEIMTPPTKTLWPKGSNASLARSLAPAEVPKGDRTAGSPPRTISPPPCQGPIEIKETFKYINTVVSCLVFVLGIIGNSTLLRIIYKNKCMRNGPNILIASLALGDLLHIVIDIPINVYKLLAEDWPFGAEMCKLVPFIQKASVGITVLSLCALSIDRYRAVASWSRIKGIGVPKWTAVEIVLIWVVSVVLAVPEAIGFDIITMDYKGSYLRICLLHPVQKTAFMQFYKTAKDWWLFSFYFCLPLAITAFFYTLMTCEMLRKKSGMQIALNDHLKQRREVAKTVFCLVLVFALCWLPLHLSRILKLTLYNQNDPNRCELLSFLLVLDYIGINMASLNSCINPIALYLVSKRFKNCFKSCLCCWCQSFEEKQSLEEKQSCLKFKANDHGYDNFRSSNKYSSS

ETA receptor (ETAR) = biological target: T2, ETA receptor (ETAR) (Homo sapiens, UniProt P25101); assay: ET-1-induced intracellular calcium mobilization (Fluo-4) in HEK293/ETAR cells, antagonist mode; assay type: cell-based
T2 construct: gene EDNRA
T2 sequence (P25101 21-427): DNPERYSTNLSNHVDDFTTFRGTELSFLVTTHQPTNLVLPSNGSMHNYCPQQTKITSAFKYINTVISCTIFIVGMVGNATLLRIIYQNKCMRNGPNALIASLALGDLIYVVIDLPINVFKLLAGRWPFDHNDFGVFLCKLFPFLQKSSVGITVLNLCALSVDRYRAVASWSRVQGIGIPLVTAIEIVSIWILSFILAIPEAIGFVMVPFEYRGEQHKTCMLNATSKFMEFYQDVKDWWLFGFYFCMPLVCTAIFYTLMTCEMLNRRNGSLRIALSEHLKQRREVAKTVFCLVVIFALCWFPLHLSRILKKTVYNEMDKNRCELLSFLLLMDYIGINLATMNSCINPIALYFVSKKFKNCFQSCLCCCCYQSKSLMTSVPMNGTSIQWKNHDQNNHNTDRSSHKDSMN

SMILES	IC50 (ETB receptor (ETBR))	IC50 (ETA receptor (ETAR))	IC50 (ETB receptor (ETBR); read-out: IC50)
COc1cccc2c1cc([N+](=O)[O-])c1c(C(=O)O)cc3c(c12)OCO3 [Aristolochic acid A]	7.4 µM	7.91 µM	
CC(C)C[C@@H]1NC(=O)[C@@H](C(C)C)NC(=O)[C@@H]2CCCN2C(=O)[C@@H](CC(=O)O)NC(=O)[C@@H](Cc2c[nH]c3ccccc23)NC1=O [BQ-123] (cyclo(L[dW][dD]P[dV]))		0.00027 µM	
CCCC[C@@H](NC(=O)[C@@H](Cc1cn(C(=O)OC)c2ccccc12)NC(=O)[C@H](CC(C)(C)C)NC(=O)N1[C@H](C)CCC[C@@H]1C)C(=O)O [BQ-788]			5e-05 µM

— paper PMC4813245, “Discovery of Dual ETA/ETB Receptor Antagonists from Traditional Chinese Herbs through in Silico and in Vitro Screening” (International Journal of Molecular Sciences, 2016)
